Data reported in patent publication US20160030364A1, “Therapeutic Compositions and Uses Thereof” (MANUKA HEALTH NEW ZEALAND LIMITED, priority 2013, published 2016).

Test system: human colorectal adenocarcinoma cells (DLD-1)
Experiment: MTT proliferation assay, DLD-1 (Examples 1-2)
Assay type: cell-based
Description: (§1) Test samples shown below in Table 2 were assessed for their ability to modulate the viability and proliferation of human colorectal adenocarcinoma cells (DLD-1) as assessed by the MTT assay. A positive control, 5-fluorouracil (5-FU) was included in addition to an unsupplemented cell control (negative control) in the study. The test samples were obtained by fractionation of propolis tincture.
as §1, with “study.” for “study. The test samples were obtained by fractionation of propolis tincture.”
Human colorectal adenocarcinoma epithelial cell lines were revived from cryostorage and cultured in the presence of the test and reference samples. The culture conditions for the cells were those described by the supplier of the cells (ATCC). An MTT assay was then performed on the cultures to determine the effect of the samples on the cell proliferation.
Working solutions were prepared by dissolving the test fractions in 15% ethanol (ETOH)/HBSS to a concentration of 2 mg/mL solids.
• 1. Human colorectal adenocarcinoma cells (ATCC CCI-221, DLD-1). • 2. Penicillin-streptomycin solution: 10000 units/mL penicillin, 10 mg/mL streptomycin in 0.9% NaCl (Sigma Cat #P-0781). Stored at −20° C. • 3. DMEM culture medium (Invitrogen Cat #12100-046) Stored at −20° C. • 4. Trypsin-EDTA solution: 0.25% Trypsin/EDTA, Invitrogen Cat#15400054 (×10 in stock). • 5. Phosphate buffered saline (PBS) (Prepared by TBL). • 6. Hanks Balanced Salt Solution (HBSS). (GIBCO Cat No. 14185-052). Stored at 4° C. • 7. Foetal Bovine Serum (GIBCO Cat #10091-148). Stored at −20° C. • 8. MTT Reagent: 100 mg/vial, (SIGMA Cat. No. M-2128) dissolved in PBS at 10 mg/mL and stored at −20° C. 5 mg/mL MTT solution were prepared in PBS and stored at 4° C. as working solution. • 9. MTT lysis buffer: 10% sodium dodecyl sulphate (SDS)/45% Dimethyl Formamide (20 g SDS was dissolved in 100 mL of double-distilled water (DDW), and 90 mL of Dimethyl Formamide added to the SDS solution). The pH was adjusted to 4.7 by glacial acetic acid, and DDW added up to a final volume of 200 mL. • 10. 5-Fluorouracil (5-FU), (Sigma Cat. No. F-6627). Two working solutions were prepared at 150 ng/mL and 75 ng/mL, dissolved in 15% Ethanol/HBSS. Final concentrations were 7.50 ng/mL and 3.75 ng/mL.
The medium for the propagation of the colorectal adenocarcinoma (DLD-1) cells was DMEM, supplemented with penicillin-streptomycin solution (10 mL per litre). FBS was added just before use to give 10% w/v.
• 1. The human colorectal adenocarcinoma cells (DLD-1) obtained from the American Type Culture Collection USA were revived from cryostorage. • 2. Following initial propagation using the media described above (see Medium Preparation), the culture was subcultured using the trypsin-EDTA as follows. The media was removed and 5 mL of the trypsin-EDTA solution added and incubated at 37° C. for 5 min or until all the cells had detached. The trypsin was neutralised by adding an equal volume of DMEM medium and the culture centrifuged at 300 g (1200 rpm) for 5 min at 4° C. • 3. The supernatant was decanted and the cell pellets resuspended in medium DMEM, FBS (10%), penicillin (100 units/mL), streptomycin (100 μg/mL). The cells were cultured at 37° C. in 5% CO2/95% air. • 4. After reaching confluence, the cells were detached using trypsin-EDTA and centrifuged as described in 2 above. • 5. The supernatants were discarded and the cells resuspended in DMEM and supplements as described in 3 above at 1.0×10^4 cells per mL. • 6. Into each well of three 96 well plates, 180 μl of the cells (1,800 cells/well) or medium was added. The plates were incubated at 5% CO2/95% air at 37° C. for 48 h which was sufficient to allow the cells to adhere. • 7. To each well, 20 μl of each, of the test samples or positive control was added. […]

[1] = Example 2, DLD-1, sample 200 μg/mL, 24 hours incubation

O=C1C[C@@H](c2ccccc2)Oc2cc(O)cc(O)c21 [Pinocembrin, reference compound] was tested, and the “Mean OD (570 nm)” value [1] was 0.0196 and the inhibition at 200 µg/mL (Homo sapiens, Example 2, DLD-1, sample 200 μg/mL, 24 hours incubation) was 94%.
For O=c1[nH]cc(F)c(=O)[nH]1 [Sample 5-FU, 5-fluorouracil, reference compound], the Mean OD (570 nm) (Example 1, DLD-1, 5-FU 7.50 ng/ml) was 0.657 and the inhibition at 0.0075 µg/mL (Homo sapiens, Example 1, DLD-1, 5-FU 7.50 ng/ml) was 6.69%.
COc1cc(O)c2c(=O)cc(-c3ccccc3)oc2c1 [Tectochrysin, tectochrysin] was tested, and the “% inhibition” value [1] was 29.45% and the “Mean OD (570 nm)” value [1] was 0.2285.
With O=C(O)/C=C/c1ccc(O)cc1 [p-coumaric acid, para-coumaric acid, reference compound] the “activity against DLD-1” value (isolated from NZ propolis, data not shown in Example 2) was “inactive”.
